Experiments:
Tubulin = Tubulin (Sus scrofa, UniProt P02550+P02554); test: Inhibition of tubulin polymerization (turbidimetry); format: biochemical, pig; settings: tubulin 10 μM, 37° C., turbidity at 350 nm
Procedure: Tubulin is purified from pig brains according to the published methods (Shelanski et al., 1973, Proc. Natl, Acad. Sci. USA, 70, 765-768. Weingarten et al., 1975, Proc. Natl, Acad. Sci. USA, 72, 1858-1862). Briefly, the brains are ground and centrifuged in an extraction buffer. The tubulin, contained in the extract supernatant, is subjected to two successive cycles of polymerization at 37° C. and depolymerization at 4° C., before being separated from the MAPs (Microtubule Associated Proteins) by chromatography on a phosphocellulose P11 column (Whatman). The tubulin thus isolated is more than 95% pure. It is stored in a buffer known as RB/2 30% glycerol, the composition of which is MES-NaOH [2-(N-morpholino)ethanesulfonic acid] 50 mM, pH 6.8; MgCl2 0.25 mM; EGTA 0.5 mM; 30% glycerol (v/v), GTP (guanosine 5′-triphosphate) 0.2 mM. The polymerization of the tubulin into microtubules is monitored by turbidimetry as follows; the tubulin is adjusted to a concentration of 10 μM (1 mg/ml) in the RB/2 30% glycerol buffer, to which is added 1 mM GTP and 6 mM MgCl2. The polymerization is initiated by increasing the temperature from 6° C. to 37° C. in a cuvette with a 1 cm optical pathlength, placed in a Uvikon 931 spectrophotometer (Kontron) equipped with a thermostatically-regulated cuvette holder. The increase in the turbidity of the solution is monitored at 350 nm. The products are dissolved at 10 mM in DMSO and added at variable concentrations (0.5 to 10 μM) to the tubulin solution before polymerization. The IC50 value is defined as the concentration of product which inhibits 50% of the rate of polymerization. A product whose IC50 value is less than or equal to 3 μM is considered as very active.

HeLa cells = test: Inhibition of proliferation of HeLa cells ([14C]-thymidine incorporation); format: cell-based, human
Procedure: The proliferation of HeLa cells is assessed by measuring the incorporation of [^14C]-thymidine in the following way. The HeLa cells (epithelial tumor cells of human origin) are cultured in a DMEM medium (Gibco) which contains 10% fetal calf serum and antibiotics (1% penicillin, 1% streptomycin). To carry out the proliferation test, the cells are inoculated into 96-well cytostar microplates (Amersham), at a rate of 5 000 cells per well. [^14C]-thymidine (0.1 μCi/well) and the products to be assessed are then added. Variable concentrations of product up to 10 μM are used; the DMSO (solvent used to dissolve the products) should not exceed 0.5% in the medium. After incubation for 48 hours at 37° C., the radioactivity incorporated into the cells is measured by counting the plate in a TRI-LUX counter (Wallac). The IC50 value is defined as the concentration of product which reduces the radioactivity by 50% relative to an untreated control. A product whose IC50 value is less than 1 μM is considered as cytotoxic.

HDMEC cells [1] = test: Inhibition of proliferation of HDMEC cells; format: cell-based; settings: Homo sapiens
HDMEC cells [2] = test: Detachment effect on HDMEC endothelial cells; format: cell-based, human; settings: treatment for two hours
Text: A test to determine the detachment of endothelial cells was established in order to select the products on the basis of their “in vitro” activity. This test for determining the endothelial cell detachment is characterized in that the endothelial cells, inoculated in plates which are coated at the bottom with a binder, e.g., chosen from gelatin, fibronectin or vitronectin, after culturing, are supplemented with a medium containing the test compound, and the cells are then labeled with a fluorescent substance, the cells which become detached are removed by washing and the fluorescence of the remaining cells is counted in a fluorimeter.
This test consists in measuring the detachment of endothelial cells cultured on substrates based on a binder, e.g., chosen from fibronectin, vitronectin and gelatin. […] The fluorescence of the remaining cells is counted in a fluorimeter. […]
The assessment of the detachment of the endothelial cells in vitro is determined in the following way. […] The fluorescence of the cells which remain attached to the substratum of the well is counted using a fluorimeter, Spectrafluor Plus (Tecan, excitation at 485 nm, and emission at 535 nm). The data are the average of six different samples and are expressed as a percentage of the control (untreated cells). […]
The assessment of the detachment of the endothelial cells in vitro is determined in the following way. […]

Chain of Tubulin (P02554 whole entry): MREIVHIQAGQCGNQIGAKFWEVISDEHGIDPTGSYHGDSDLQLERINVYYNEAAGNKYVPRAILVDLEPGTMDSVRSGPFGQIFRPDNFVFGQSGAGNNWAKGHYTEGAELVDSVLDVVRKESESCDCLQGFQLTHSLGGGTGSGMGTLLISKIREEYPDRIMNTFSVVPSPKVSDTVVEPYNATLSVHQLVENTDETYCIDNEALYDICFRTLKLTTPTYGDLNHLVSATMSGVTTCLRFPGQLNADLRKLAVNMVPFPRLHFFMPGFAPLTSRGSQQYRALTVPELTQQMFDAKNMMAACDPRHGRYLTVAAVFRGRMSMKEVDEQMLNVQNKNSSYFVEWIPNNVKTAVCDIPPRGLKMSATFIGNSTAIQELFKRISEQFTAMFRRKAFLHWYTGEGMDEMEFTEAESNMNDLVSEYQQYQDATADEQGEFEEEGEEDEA
Chain of Tubulin (P02550 whole entry): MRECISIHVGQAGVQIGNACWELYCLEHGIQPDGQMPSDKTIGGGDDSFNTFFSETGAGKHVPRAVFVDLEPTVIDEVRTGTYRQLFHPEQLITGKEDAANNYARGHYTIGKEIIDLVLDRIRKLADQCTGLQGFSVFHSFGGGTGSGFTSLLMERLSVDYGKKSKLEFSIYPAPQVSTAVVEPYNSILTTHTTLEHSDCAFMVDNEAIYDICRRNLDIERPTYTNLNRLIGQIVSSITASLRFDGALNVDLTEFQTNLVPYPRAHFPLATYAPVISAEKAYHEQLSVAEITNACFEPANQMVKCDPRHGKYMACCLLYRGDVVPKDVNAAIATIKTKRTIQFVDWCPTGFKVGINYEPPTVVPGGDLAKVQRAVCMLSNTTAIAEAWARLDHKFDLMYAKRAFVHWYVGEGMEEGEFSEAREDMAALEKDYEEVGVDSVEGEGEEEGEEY

IC50 (HeLa cells; Homo sapiens, HeLa, 48 hours) [µM]	SMILES	IC50 (Tubulin) [µM]	IC50 (HeLa cells; Homo sapiens, HeLa, 48 h) [µM]	IC50 (HDMEC cells [1]) [µM]	Percentage of detachment of HDMEC cells induced with the compound cited in the example at a concentration of 1 μM (HDMEC cells [2])	IC50 (HeLa cells; 48 hours) [µM]
–	COc1ccc(C2CC2C(=O)c2cc(OC)c(OC)c(OC)c2)cc1O (racemic) [Example 1, [2-(3-Hydroxy-4-methoxyphenyl)cyclopropyl](3,4,5-trimethoxyphenyl)methanone, trans racemate]	1	< 0.0019	0.017 to 0.018	36-37%	–
–	COc1cc(C(=O)C2CC2c2ccc(N(C)C)cc2)cc(OC)c1OC (racemic) [Example 2, [2-(4-Dimethylaminophenyl)cyclopropyl](3,4,5-trimethoxyphenyl)methanone, trans racemate]	2.5	1.35	4	–	1.45
0.52 to 1.06	COc1ccc(C2C3C=CC(C3)C2C(=O)c2cc(OC)c(OC)c(OC)c2)cc1O (racemic) [Example 3, [2-(3-Hydroxy-4-methoxyphenyl)bicyclo[2.2.1]hept-4-enyl](3,4,5-trimethoxyphenyl)methanone, trans racemate]	4.5	–	–	–	–
